Among the data in patent US20090093454A1, “Chemical Compounds” (priority 2005, published 2009) are IC50 values, retold here.

This assay deals with HIV-1. The assay can be described thus: HIV infectivity assay (Table 2, strain not given). Type of assay: cell-based. The note with it: Human immunodeficiency virus 1, read-out: Activity Level. The method, then:
Compounds were profiled against two HIV-1 viruses, the M-tropic (CCR5 utilizing) Ba-L strain and the T-tropic (CXCR4 utilizing) IIIB strain. Both viruses were propagated in human peripheral blood lymphocytes. Compounds were tested for there ability to block infection of the HOS cell line (expressing hCXCR4/hCCR5/hCD4/pHIV-LTR-luciferase) by either HIV-1 Ba-L or HIV-1, IIIB. Compound cytotoxicity was also examined in the absence of virus addition.
HOS cells (expressing hCXCR4/hCCR5/hCD4/pHIV-LTR-luciferase) were harvested and diluted in Dulbeccos modified Eagles media supplemented with 2% FCS and non-essential amino acid to a concentration of 60,000 cells/ml. The cells were plated into 96-well plates (100 ul per well) and the plates were placed in a tissue culture incubator (37° C.; 5% CO2/95% air) for a period of 24 h.
Subsequently, 50 ul of the desired drug solution (4 times the final concentration) was added to each well and the plates were returned to the tissue culture incubator (37° C.; 5% CO2/95% air) for 1 h. Following this incubation 50 ul of diluted virus was added to each well (approximately 2 million RLU per well of virus). The plates were returned to the tissue culture incubator (37° C.; 5% CO2/95% air) and were incubated for a further 96 h.
Following this incubation the endpoint for the virally infected cultures was quantified following addition of Steady-Glo Luciferase assay system reagent (Promega, Madison, Wis.). Cell viability or non-infected cultures was measured using a CellTiter-Glo luminescent cell viability assay system (Promega, Madison, Wis.). All luminescent readouts are performed on a Topcount luminescence detector (Packard, Meridien, Conn.).
Compounds were profiled against two HIV-1 viruses, the M-tropic (CCR5 utilizing) Ba-L strain and the T-tropic (CXCR4 utilizing) IIIB strain. Ba-L was propagated in either peripheral blood lymphocytes or SupT1/CCR5+/CXCR4+ cells. IIIB was propagated in peripheral blood lymphocytes. Compounds were tested for their ability to block infection of the HOS cell line (expressing hCXCR4/hCCR5/hCD4/pHIV-LTR-luciferase) by either HIV-1 Ba-L or HIV-1, IIIB. Compound cytotoxicity was also examined in the absence of virus addition.
HOS cells (expressing hCXCR4/hCCR5/hCD4/pHIV-LTR-luciferase) were harvested and diluted in Dulbeccos modified Eagles media supplemented with 2% FCS to a concentration of 120,000 cells/ml. The cells were plated into 96-well plates (50 μl per well) and the plates were placed in a tissue culture incubator (370° C.; 5% CO2/95% air) for a period of 24 h.
Subsequently, 50 μl of the desired drug solution (2 times the final concentration) was added to each well and the plates were returned to the tissue culture incubator (370° C.; 5% CO2/95% air) for 1 h. Following this incubation, 60 μl of diluted virus (4 times the final concentration) was added to 60 μl of 2× the final desired concentration of the compound and 100 μl of this compound/virus mix was added to each well (approximately 2 million RLU per well of virus). The plates were returned to the tissue culture incubator (370° C.; 5% CO2/95% air) and were incubated for a further 96 h.
Regarding `c1cnc2c(c1)CC[C@@H]1CCCN(Cc3cn4c(N5CCC(C6CCN(c7cccc8nc(CC9CCC[C@H]%10CCc%11cccnc%11[C@@H]9%10)cn78)CC6)CC5)cccc4n3)[C@H]21` (stereo partly drawn) [Example 76b, (4aR,10bS)-1-{[5-(1′-{2-[(6aS,10aR)-5,6,6a,7,8,9,10,10a-octahydrobenzo[h]quinolin-10-ylmethyl]imidazo[1,2-a]pyridin-5-yl}-4,4′-bipiperidin-1-yl)imidazo[1,2-a]pyridin-2-yl]methyl}-1,2,3,4,4a,5,6,10b-octahydro-1,10-phenanthroline], the IC50 lay in the range of 0.5 to 10 µM.

As for `CN1CCC(N(C)c2cccc3nc(CN4CCC[C@H]5CCc6cccnc6[C@H]54)cn23)C1` (stereo partly drawn) [Example 75, 2-[(4aR,10bS)-3,4,4a,5,6,10b-hexahydro-1,10-phenanthrolin-1(2H)-ylmethyl]-N-methyl-N-(1-methyl-3-pyrrolidinyl)imidazo[1,2-a]pyridin-5-amine], the IC50 was less than 0.1 µM. Next, `CCN(CC)Cc1c(CN2CCC[C@H]3CCc4cccnc4[C@H]32)nc2cccc(N3CCN(C)CC3)n12` [Example 55, N-ethyl-N-{[2-[(4aR,10bS)-3,4,4a,5,6,10b-hexahydro-1,10-phenanthrolin-1(2H)-ylmethyl]-5-(4-methyl-1-piperazinyl)imidazo[1,2-a]pyridin-3-yl]methyl}ethanamine]: less than 0.1 µM; `CN1CCCC(Cn2c(CN3CCC[C@@H]4CCc5cccnc5[C@H]43)nc3ccccc32)C1` (relative stereo) [Example 42, (trans) 1-({1-[(1-methyl-3-piperidinyl)methyl]-1H-benzimidazol-2-yl}methyl)-1,2,3,4,4a,5,6,10b-octahydro-1,10-phenanthroline]: 0.1 to 0.5 µM.

For `c1cnc2c(c1)CC[C@@H]1CCCN(Cc3cn4c(NC5CCNC5)cccc4n3)[C@H]21` (stereo partly drawn) [Example 109, 2-[(4aR,10bS)-3,4,4a,5,6,10b-hexahydro-1,10-phenanthrolin-1(2H)-ylmethyl]-N-3-pyrrolidinylimidazo[1,2-a]pyridin-5-amine], the IC50 fell in the range of 0.1 to 0.5 µM. Next, `CN1CCN(c2cccc3nc(CN4CCC[C@H]5CCc6cccnc6[C@H]54)c(CN4CCOCC4)n23)CC1` [Example 59, (4aR,10bS)-1-{[5-(4-methyl-1-piperazinyl)-3-(4-morpholinylmethyl)imidazo[1,2-a]pyridin-2-yl]methyl}-1,2,3,4,4a,5,6,10b-octahydro-1,10-phenanthroline]: less than 0.1 µM; `C[C@@H]1CN[C@@H](C)CN1c1cccc2nc(CN3CCC[C@H]4CCc5cccnc5[C@H]43)cn12` [Example 79, (4aR,10bS)-1-({5-[(2R,5S)-2,5-dimethyl-1-piperazinyl]imidazo[1,2-a]pyridin-2-yl}methyl)-1,2,3,4,4a,5,6,10b-octahydro-1,10-phenanthroline]: less than 0.1 µM. With `CN1CCN(c2cccc3nc(CN4CCC[C@H]5CCc6cccnc6[C@H]54)[nH]c23)CC1` [Example 48, (4aR,10bS)-1-{[4-(4-methyl-1-piperazinyl)-1H-benzimidazol-2-yl]methyl}-1,2,3,4,4a,5,6,10b-octahydro-1,10-phenanthroline], the IC50 is less than 0.1 µM. The same measure for `CN1CCC[C@H](Cn2c(CN3CCC[C@H]4CCc5cccnc5[C@H]43)nc3ccccc32)C1` [Example 66, (4aR,10bS)-1-[(1-{[(3S)-1-methyl-3-piperidinyl]methyl}-1H-benzimidazol-2-yl)methyl]-1,2,3,4,4a,5,6,10b-octahydro-1,10-phenanthroline]: less than 0.1 µM.

As for `N[C@H]1CCN(c2cccc3nc(CN4CCC[C@H]5CCc6cccnc6[C@H]54)cn23)C1` [Example 107, (3S)-1-{2-[(4aR,10bS)-3,4,4a,5,6,10b-hexahydro-1,10-phenanthrolin-1(2H)-ylmethyl]imidazo[1,2-a]pyridin-5-yl}-3-pyrrolidinamine], the IC50 is less than 0.1 µM.
